These results are taken from patent US12448389B2, “BRM targeting compounds and associated methods of use” (Prelude Therapeutics Incorporated, priority 2020, dated 2025).

One may read the DC50 as the concentration giving 50% degradation. Usually Dmax stands for the greatest extent of degradation seen.

Where only a bound is given, the exact number is not on record here.

The target of one assay is T1, SMARCA4-HiBiT (Homo sapiens, UniProt P51532).
T1 construct: SMARCA4-HiBiT knock-in Hela monoclonal cell (CS3023226); host or cells: HeLa monoclonal knock-in line (CRISPR HiBiT knock-in at the endogenous locus, heterozygous)
Kind of assay: SMARCA4 HiBiT degradation assay in HeLa cells. Particulars: 18 hours incubation; for DC50: read-out: HeLa-HiBit-SM4 DC50; for Dmax: HeLa, read-out: HeLa-HiBit-SM4 Dmax (%). In kind it is cell-based. The method in brief: (§1)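 HeLa monoclonal lines with heterozygous HiBiT knock-in were seeded at 2500 cells/well in EMEM with 10% FBS and treated with compound for 18 h at 37 °C. Remaining tagged protein was measured by Nano-Glo HiBiT lytic luminescence after 30–60 min at RT, and values came from curve fitting.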

Another assay deals with T2, SMARCA2-HiBiT (Homo sapiens, UniProt P51531).
T2 construct: SMARCA2-HiBiT knock-in Hela monoclonal cell (CS302366); host or cells: HeLa monoclonal knock-in line (CRISPR HiBiT knock-in at the endogenous locus, heterozygous)
Nature of the assay: SMARCA2 HiBiT degradation assay in HeLa cells. It counts as cell-based. To be noted: 18 hours incubation; for DC50: read-out: HeLa_HiBit-SM2 DC50; for Dmax: HeLa, read-out: HeLa-HiBit-SM2 Dmax (%). A digest of the protocol: as §1

T2 sequence (P51531 whole entry): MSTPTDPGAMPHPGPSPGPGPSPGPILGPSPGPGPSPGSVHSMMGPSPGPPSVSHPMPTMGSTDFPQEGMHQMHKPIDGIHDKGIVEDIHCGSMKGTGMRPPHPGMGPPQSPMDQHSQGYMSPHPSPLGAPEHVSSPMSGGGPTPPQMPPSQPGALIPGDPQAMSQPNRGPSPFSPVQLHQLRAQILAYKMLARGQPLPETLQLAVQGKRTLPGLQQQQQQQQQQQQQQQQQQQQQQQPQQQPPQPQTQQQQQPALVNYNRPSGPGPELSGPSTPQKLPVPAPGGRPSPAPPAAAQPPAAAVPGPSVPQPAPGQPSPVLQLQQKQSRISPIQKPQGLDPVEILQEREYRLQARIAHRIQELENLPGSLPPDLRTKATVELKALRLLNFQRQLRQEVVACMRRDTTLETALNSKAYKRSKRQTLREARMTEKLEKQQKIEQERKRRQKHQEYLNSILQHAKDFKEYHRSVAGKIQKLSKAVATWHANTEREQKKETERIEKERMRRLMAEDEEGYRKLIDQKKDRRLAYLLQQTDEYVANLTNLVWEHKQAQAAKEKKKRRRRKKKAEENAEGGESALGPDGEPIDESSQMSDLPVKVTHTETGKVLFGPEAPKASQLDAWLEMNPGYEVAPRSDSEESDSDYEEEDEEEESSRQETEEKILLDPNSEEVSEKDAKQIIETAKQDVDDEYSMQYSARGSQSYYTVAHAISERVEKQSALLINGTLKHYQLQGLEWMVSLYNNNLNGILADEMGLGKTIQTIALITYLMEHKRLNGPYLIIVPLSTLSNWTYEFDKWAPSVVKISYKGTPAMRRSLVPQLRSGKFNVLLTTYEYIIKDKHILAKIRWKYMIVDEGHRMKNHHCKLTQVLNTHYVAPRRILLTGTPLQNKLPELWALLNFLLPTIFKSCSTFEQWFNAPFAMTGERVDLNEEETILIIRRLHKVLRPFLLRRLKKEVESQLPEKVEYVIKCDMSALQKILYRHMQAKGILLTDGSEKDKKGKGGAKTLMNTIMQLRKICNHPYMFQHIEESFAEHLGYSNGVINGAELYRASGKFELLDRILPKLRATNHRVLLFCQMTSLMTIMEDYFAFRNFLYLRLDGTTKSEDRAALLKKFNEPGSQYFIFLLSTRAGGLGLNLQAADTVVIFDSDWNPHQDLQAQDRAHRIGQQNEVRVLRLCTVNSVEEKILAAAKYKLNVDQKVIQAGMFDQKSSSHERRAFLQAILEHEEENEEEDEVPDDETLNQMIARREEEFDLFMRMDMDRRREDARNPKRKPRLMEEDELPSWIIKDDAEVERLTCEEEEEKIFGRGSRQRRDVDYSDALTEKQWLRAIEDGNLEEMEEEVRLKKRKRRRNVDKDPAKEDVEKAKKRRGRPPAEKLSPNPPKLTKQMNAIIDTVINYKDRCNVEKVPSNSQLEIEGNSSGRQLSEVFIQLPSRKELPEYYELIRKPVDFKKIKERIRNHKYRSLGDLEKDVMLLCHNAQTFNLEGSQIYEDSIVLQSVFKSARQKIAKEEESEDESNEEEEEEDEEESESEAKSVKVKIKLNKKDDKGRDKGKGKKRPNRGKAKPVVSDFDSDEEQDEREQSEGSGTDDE
T1 sequence (P51532 whole entry): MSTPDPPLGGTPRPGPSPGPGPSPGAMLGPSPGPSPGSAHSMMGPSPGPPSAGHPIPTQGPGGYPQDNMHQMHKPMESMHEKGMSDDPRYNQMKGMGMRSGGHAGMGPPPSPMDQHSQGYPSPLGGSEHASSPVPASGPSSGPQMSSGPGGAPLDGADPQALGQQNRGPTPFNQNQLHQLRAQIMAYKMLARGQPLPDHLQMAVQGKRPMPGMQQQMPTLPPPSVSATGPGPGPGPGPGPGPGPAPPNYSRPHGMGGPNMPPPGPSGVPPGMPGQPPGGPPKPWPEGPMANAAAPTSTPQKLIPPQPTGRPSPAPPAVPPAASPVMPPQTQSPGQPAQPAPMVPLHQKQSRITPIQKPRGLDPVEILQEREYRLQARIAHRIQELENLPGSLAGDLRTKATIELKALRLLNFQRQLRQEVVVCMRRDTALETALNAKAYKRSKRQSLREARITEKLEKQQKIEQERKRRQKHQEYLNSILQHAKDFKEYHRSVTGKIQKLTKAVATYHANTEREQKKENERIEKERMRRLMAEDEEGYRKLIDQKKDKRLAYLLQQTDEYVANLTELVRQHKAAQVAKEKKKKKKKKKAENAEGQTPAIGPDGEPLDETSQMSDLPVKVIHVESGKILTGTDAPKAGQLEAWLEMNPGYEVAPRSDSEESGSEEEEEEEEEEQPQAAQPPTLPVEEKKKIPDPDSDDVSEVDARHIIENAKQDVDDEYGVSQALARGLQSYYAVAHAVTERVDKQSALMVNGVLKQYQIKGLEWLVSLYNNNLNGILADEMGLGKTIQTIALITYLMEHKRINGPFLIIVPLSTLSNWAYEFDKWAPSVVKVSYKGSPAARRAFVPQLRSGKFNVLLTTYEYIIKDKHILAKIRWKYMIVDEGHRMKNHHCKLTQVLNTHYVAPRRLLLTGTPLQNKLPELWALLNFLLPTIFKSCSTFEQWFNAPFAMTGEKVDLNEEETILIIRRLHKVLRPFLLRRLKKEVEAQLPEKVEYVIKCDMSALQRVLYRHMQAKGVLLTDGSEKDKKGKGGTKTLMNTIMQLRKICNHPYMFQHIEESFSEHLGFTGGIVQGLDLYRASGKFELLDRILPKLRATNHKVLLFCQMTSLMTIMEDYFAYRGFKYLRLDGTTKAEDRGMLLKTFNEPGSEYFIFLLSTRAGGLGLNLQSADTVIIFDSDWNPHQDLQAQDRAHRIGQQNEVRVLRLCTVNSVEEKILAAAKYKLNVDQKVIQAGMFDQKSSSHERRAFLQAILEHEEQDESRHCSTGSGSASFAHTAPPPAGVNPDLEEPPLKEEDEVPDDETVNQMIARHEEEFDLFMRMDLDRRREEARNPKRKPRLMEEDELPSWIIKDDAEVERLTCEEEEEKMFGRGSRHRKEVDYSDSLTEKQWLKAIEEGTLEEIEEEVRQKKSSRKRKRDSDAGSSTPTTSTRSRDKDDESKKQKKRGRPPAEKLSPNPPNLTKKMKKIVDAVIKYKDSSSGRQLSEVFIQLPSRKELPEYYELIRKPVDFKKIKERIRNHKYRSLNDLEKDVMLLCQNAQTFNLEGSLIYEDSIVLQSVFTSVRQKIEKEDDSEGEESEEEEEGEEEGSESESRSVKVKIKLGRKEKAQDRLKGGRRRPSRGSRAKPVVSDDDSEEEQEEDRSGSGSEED

As to `N#CC1(CN2CCC(CN3CCN4c5cc(-c6ccccc6O)nnc5NC[C@H]4C3)CC2)CCN(c2ccc3c(c2)C(=O)N(C2CCC(=O)NC2=O)C3=O)CC1` (stereo partly drawn) [Example 179, 1-[2-(2,6-dioxopiperidin-3-yl)-1,3-dioxoisoindol-5-y]-4-[[4-[[(10S)-4-(2-hydroxyphenyl)-1,5,6,8,12-pentazatricyclo[8.4.0.02,7]tetradeca-2,4,6-trien-12-yl]methyl]piperidin-1-yl]methyl]piperidine-4-carbonitrile], the 50% degradation concentration (DC50) at SMARCA4-HiBiT and on SMARCA2-HiBiT was less than 10 nM each time. The maximal degradation (Dmax) at SMARCA4-HiBiT and at SMARCA2-HiBiT was 50 to 75% each time.
With `O=C1CCC(N2C(=O)c3ccc(N4[C@@H]5CC[C@H]4CC(CN4CCC(CN6CCN7c8cc(-c9ccccc9O)nnc8NC[C@H]7C6)CC4)C5)cc3C2=O)C(=O)N1` (stereo partly drawn) [Example 180, 2-(2,6-dioxopiperidin-3-yl)-5-[(1S,5R)-3-[[4-[[(10S)-4-(2-hydroxyphenyl)-1,5,6,8,12-pentazatricyclo[8.4.0.02,7]tetradeca-2,4,6-trien-12-yl]methyl]piperidin-1-yl]methyl]-8-azabicyclo[3.2.1]octan-8-yl]isoindole-1,3-dione], at SMARCA4-HiBiT, the DC50 is less than 10 nM and the Dmax was 75 to 85%. Moreover, on SMARCA2-HiBiT, the DC50 was less than 10 nM and the Dmax is 75 to 85%.
In the case of `O=C1CCC(N2C(=O)c3ccc(N4CCC(CN5CCC(CN6CCN7c8cc(-c9ccccc9O)nnc8NC[C@H]7C6)CC5)C(F)(F)C4)cc3C2=O)C(=O)N1` (stereo partly drawn) [Example 181, 5-[3,3-difluoro-4-[[4-[[(10S)-4-(2-hydroxyphenyl)-1,5,6,8,12-pentazatricyclo[8.4.0.02,7]tetradeca-2,4,6-trien-12-yl]methyl]piperidin-1-yl]mehtyl]piperidin-1-yl]-2-(2,6-dioxopiperidin-3-yl) isoindoline-1,3-dione], at SMARCA4-HiBiT, the DC50 was less than 10 nM and the Dmax is more than 85%. In addition, on SMARCA2-HiBiT, the DC50 was less than 10 nM and the greatest degradation seen (Dmax) was more than 85%.
As for `O=C1CCC(N2C(=O)c3ccc(N4CCC(CN5C[C@@H]6[C@H](C5)[C@H]6CN5CCN6c7cc(-c8ccccc8O)nnc7NC[C@H]6C5)C(F)(F)C4)cc3C2=O)C(=O)N1` (stereo partly drawn) [Example 182, 5-[3,3-difluoro-4-[[(1S,5R)-6-[[(10S)-4-(2-hydroxyphenyl)-1,5,6,8,12-pentazatricyclo[8.4.0.02,7]tetradeca-2(7),3,5-trien-12-yl]methyl]-3-azabicyclo[3.1.0]hexan-3-yl]methyl]piperidin-1-yl]-2-(2,6-dioxopiperidin-3-yl)isoindole-1,3-dione], the DC50 at SMARCA4-HiBiT was 10 to 100 nM; at SMARCA2-HiBiT, less than 10 nM. Also, the figures for the maximal degradation (Dmax) on SMARCA4-HiBiT and at SMARCA2-HiBiT were 50 to 75% and more than 85%, respectively.
Taken in the same sequence, the figures for `C[C@@H]1C[C@H](CN2C[C@@H]3[C@H](C2)[C@H]3CN2CCN3c4cc(-c5ccccc5O)nnc4NC[C@H]3C2)CCN1c1ccc2c(c1)C(=O)N(C1CCC(=O)NC1=O)C2=O` (stereo partly drawn) [Example 183, 2-(2,6-dioxopiperidin-3-yl)-5-[(2R,4R)-4-[[(1S,5R)-6-[[(10S)-4-(2-hydroxyphenyl)-1,5,6,8,12-pentazatricyclo[8.4.0.02,7]tetradeca-2,4,6-trien-12-yl]methyl]-3-azabicyclo[3.1.0]hexan-3-yl]methyl]-2-methylpiperidin-1-yl] isoindole-1,3-dione] were less than 10 nM, less than 10 nM, 75 to 85% and more than 85%.
Taken in the same sequence, the figures for `C[C@@H]1C[C@H](CN2CCC(CN3CCN4c5cc(-c6ccccc6O)nnc5NC[C@H]4C3)CC2)CCN1c1ccc2c(c1)C(=O)N(C1CCC(=O)NC1=O)C2=O` (stereo partly drawn) [Example 184, 2-(2,6-dioxopiperidin-3-yl)-5-[(2R,4R)-4-[[4-[[(10S)-4-(2-hydroxyphenyl)-1,5,6,8,12-pentazatricyclo[8.4.0.02,7]tetradeca-2,4,6-trien-12-yl]methyl]piperidin-1-yl]methyl]-2-methylpiperidin-1-yl]isoindole-1,3-dione] were less than 10 nM, less than 10 nM, more than 85% and more than 85%.
On the same counts, the results for `O=C1CCC(N2C(=O)c3ccc(N4CC[C@H](CN5CCC(CN6CCN7c8cc(-c9ccccc9O)nnc8NC[C@H]7C6)CC5)[C@H](F)C4)cc3C2=O)C(=O)N1` (stereo partly drawn) [Example 185, 2-(2,6-dioxopiperidin-3-yl)-5-[(3S,4R)-3-fluoro-4-[[4-[[(10S)-4-(2-hydroxyphenyl)-1,5,6,8,12-pentazatricyclo[8.4.0.02,7]tetradeca-2(7),3,5-trien-12-yl]methyl]piperidin-1-yl]methyl]piperidin-1-yl]isoindole-1,3-dione] are less than 10 nM, less than 10 nM, 50 to 75% and 75 to 85%.
`O=C1CCC(N2C(=O)c3ccc(N4CC[C@H](CN5C[C@@H]6[C@H](C5)[C@H]6CN5CCN6c7cc(-c8ccccc8O)nnc7NC[C@H]6C5)[C@H](F)C4)cc3C2=O)C(=O)N1` (stereo partly drawn) [Example 186, 2-(2,6-dioxopiperidin-3-yl)-5-[(3S,4R)-3-fluoro-4-[[(1S,5R)-6-[[(10S)-4-(2-hydroxyphenyl)-1,5,6,8,12-pentazatricyclo[8.4.0.02,7]tetradeca-2(7),3,5-trien-12-yl]methyl]-3-azabicyclo[3.1.0]hexan-3-yl]methyl]piperidin-1-yl]isoindole-1,3-dione]: on SMARCA4-HiBiT, the 50% degradation concentration (DC50) is less than 10 nM and the Dmax was in the range of 50 to 75%. In addition, at SMARCA2-HiBiT, the DC50 was less than 10 nM and the greatest degradation seen (Dmax) lay in the range of 75 to 85%.
On to `O=C1CCC(N2C(=O)c3ccc(CN4CCC(CN5CCC(CN6CCN7c8cc(-c9ccccc9O)nnc8NC[C@H]7C6)CC5)CC4)cc3C2=O)C(=O)N1` (stereo partly drawn) [Example 187, 2-(2,6-dioxopiperidin-3-yl)-5-[[4-[[4-[[(10S)-4-(2-hydroxyphenyl)-1,5,6,8,12-pentazatricyclo[8.4.0.02,7]tetradeca-2,4,6-trien-12-yl]methyl]piperidin-1-yl]methyl]piperidin-1-yl]methyl]isoindole-1,3-dione], for which the DC50 at SMARCA4-HiBiT and at SMARCA2-HiBiT was less than 10 nM in each case. Besides, the greatest degradation seen (Dmax) on SMARCA4-HiBiT and at SMARCA2-HiBiT was 50 to 75% each time.
For the compound `O=C1CCC(N2C(=O)c3ccc(N4CCC(CN5CC6CC(CN7CCN8c9cc(-c%10ccccc%10O)nnc9NC[C@H]8C7)C6C5)C(F)(F)C4)cc3C2=O)C(=O)N1` (stereo partly drawn) [Example 188, 5-[3,3-difluoro-4-[[6-[[(10S)-4-(2-hydroxyphenyl)-1,5,6,8,12-pentazatricyclo[8.4.0.02,7]tetradeca-2(7),3,5-trien-12-yl]methyl]-3-azabicyclo[3.2.0]heptan-3-yl]methyl]piperidin-1-yl]-2-(2,6-dioxopiperidin-3-yl)isoindole-1,3-dione], at SMARCA4-HiBiT, the DC50 was less than 10 nM and the maximal degradation (Dmax) was in the range of 75 to 85%. In addition, at SMARCA2-HiBiT, the DC50 is less than 10 nM and the Dmax was more than 85%.
On to `O=C1CCC(N2C(=O)c3ccc(N4CCC5(CN6CCC(CN7CCN8c9cc(-c%10ccccc%10O)nnc9NC[C@H]8C7)CC6)CC5C4)cc3C2=O)C(=O)N1` (stereo partly drawn) [Example 189, 2-(2,6-dioxopiperidin-3-yl)-5-[6-[[4-[[(10S)-4-(2-hydroxyphenyl)-1,5,6,8,12-pentazatricyclo[8.4.0.02,7]tetradeca-2(7),3,5-trien-12-yl]methyl]piperidin-1-yl]methyl]-3-azabicyclo[4.1.0]heptan-3-yl]isoindole-1,3-dione], for which the DC50 on SMARCA4-HiBiT and at SMARCA2-HiBiT was less than 10 nM each time. In addition, the Dmax on SMARCA4-HiBiT and at SMARCA2-HiBiT was 75 to 85% throughout.
